Data taken from patent publication US7906501B2, “Pyrrole derivatives with angiotensin II antagonist activity” (Rottapharm S.p.A., priority 2004, dated 2011).
pIC50: −log10 of the molar value. Blank lines part the entries; values can stand above or below the compound they belong to.

Legend:
[1] = tested on: spontaneously hypertensive rat (SHR); test: Reduction in systolic arterial pressure in the SHR rat after I.P. administration; assay type: in vivo; conditions: for Max. effect at 15 mg/kg (% reduction vs. basal): 0-120 min, systolic pressure; for ED15 (0-120 min): sodium salts, doses 5-20 mg/kg, dose giving 15% reduction in average basal systolic pressure, NC = not calculable, effect < 10% at all doses
[2] = tested on: renally hypertensive rat (RHR); test: Reduction in systolic arterial pressure in the RHR rat after I.P. administration; assay type: in vivo; conditions: for Max. effect at 15 mg/kg (% reduction vs. basal): 0-120 min, systolic pressure; for ED15 (0-120 min): sodium salts, doses 5-20 mg/kg, dose giving 15% reduction in average basal systolic pressure, NC = not calculable, effect < 10% at all doses
AT1 receptor = molecular target: T1, AT1 receptor (Rattus norvegicus, UniProt P25095); test: Inhibition of [125I]Sar1,Ile8-angiotensin II binding in rat liver membranes; conditions: for pIC50: rat liver membranes
T1 construct: from tissue; host or cells: rat liver membranes
T1 sequence (P25095 1-359): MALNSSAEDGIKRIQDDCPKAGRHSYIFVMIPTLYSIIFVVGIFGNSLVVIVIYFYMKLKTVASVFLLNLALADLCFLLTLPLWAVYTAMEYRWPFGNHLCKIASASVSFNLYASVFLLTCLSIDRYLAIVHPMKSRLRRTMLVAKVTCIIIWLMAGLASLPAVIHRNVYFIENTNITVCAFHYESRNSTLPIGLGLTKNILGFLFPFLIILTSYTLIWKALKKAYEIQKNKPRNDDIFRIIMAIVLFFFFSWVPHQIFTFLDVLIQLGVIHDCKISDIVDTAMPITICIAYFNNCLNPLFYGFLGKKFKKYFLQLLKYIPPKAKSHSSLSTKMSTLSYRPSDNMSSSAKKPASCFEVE
Method: Antagonist activity at the AT1 receptor on the part of compounds provided by the invention was assessed as the capacity to inhibit binding of the specific AII agonist to rat liver membranes. The method described by R. S. L. Chang et al., [JPET (1992), 262, 133-38] and M. J. Robertson et al., [Br. J. Pharmacol. (1992), 107, 1173-1180] was used with slight modifications. The concentration of radioligand [[…]]-Sar1, Ile^8-angiotensin II used was 25 pM with a membrane content corresponding to a protein concentration of approx. 25 μg of protein per sample; the incubation time was 180 minutes at 25° C. Separation of the bound from the free was carried out by rapid filtration on GFB Millipore glass fibre filters.

in vitro = conditions: human, Caco-2
Method: (§1) Gres et al. Pharm.; Res. 15 (1998), pages 726-733].
(§2) A→B permeability was thus assessed, namely the apparent permeability coefficient (Papp), of the compounds under investigation, tested at a concentration of 50 μM with an incubation time of 60 minutes, in the apical-to-basolateral direction. B→A permeability is reversely assessed, i.e. in a basolateral-to-apical direction, with an incubation time of 40 minutes.

TC7 cell monolayer = test: in vitro; conditions: human, Caco-2, 50 μM
Method: as §1, §2

[3] = displacement of 25 pM [125I]-Sar1,Ile8-angiotensin II, 180 min at 25° C.

Structure (SMILES): CCCCc1nc(Cl)c(CO)n1Cc1ccc(-c2ccccc2-c2nn[nH]n2)cc1 [Losartan, losartan]
Max. effect at 15 mg/kg (% reduction vs. basal) [1]: 12.0 % reduction vs. basal | ED15 (0-120 min) [1]: 25.4 mg/kg | Max. effect at 15 mg/kg (% reduction vs. basal) [2]: 18.9 % reduction vs. basal | ED15 (0-120 min) [2]: 16.4 mg/kg

Structure (SMILES): CCCc1c(Cl)cc(C=O)n1Cc1ccc(-c2ccccc2-c2nnn[nH]2)cc1 [Compound 4, 4-Chloro-5-n-propyl-1-[2′-(1H-tetrazol-5-yl)biphenyl-4-yl-methyl]-2-pyrrolaldehyde]
melting point: 150 °C | pIC50 (AT1 receptor; [3]): 6.21

Structure (SMILES): CC(C)CCc1cc(C(C)C)c(C=O)n1Cc1ccc(-c2ccccc2-c2nnn[nH]2)cc1 [Compound 9, 5-[(3-Methyl)butyl]-3-isopropyl-1-[2′-(1H-tetrazol-5-yl)biphenyl-4-yl-methyl]-2-pyrrolaldehyde]
melting point: 144 °C | pIC50 (AT1 receptor; [3]): 7.43

Structure (SMILES): CCCc1ccc(CO)n1Cc1ccc(-c2ccccc2-c2nnn[nH]2)cc1 [Compound 13]
pIC50 (AT1 receptor; [3]): 6.35

Structure (SMILES): Cc1ccc(C)n1Cc1ccc(-c2ccccc2-c2nnn[nH]2)cc1 [Compound 14, 2,5-Dimethyl-1-[2′-(1H-tetrazol-5-yl)biphenyl-4-yl-methyl]pyrrole]
melting point: 107 °C | pIC50 (AT1 receptor; [3]): 4.97

Structure (SMILES): CCCc1c(Br)cc(C=O)n1Cc1ccc(-c2ccccc2-c2nnn[nH]2)cc1 [Compound 3, 4-Bromo-5-n-propyl-1-[2′-(1H-tetrazol-5-yl)biphenyl-4-yl-methyl]-2-pyrrolaldehyde]
melting point: 167 °C | pIC50 (AT1 receptor; [3]): 5.98

Structure (SMILES): CCCc1ccc(C=O)n1Cc1ccc(-c2ccccc2-c2nnn[nH]2)cc1 [Compound 2, 5-n-Propyl-1-[2′-(1H-tetrazol-5-yl)biphenyl-4-yl-methyl]-2-pyrrolaldehyde]
melting point: 104 °C | pIC50 (AT1 receptor; [3]): 7.14

Structure (SMILES): CCCCc1ncc(/C=C(\Cc2cccs2)C(=O)O)n1Cc1ccc(C(=O)O)cc1 [Eprosartan, eprosartan, reference compound]
Max. effect at 15 mg/kg (% reduction vs. basal) [1]: 5.0 % reduction vs. basal | Max. effect at 15 mg/kg (% reduction vs. basal) [2]: 9.2 % reduction vs. basal | Papp A→B at 60 min, 50 μM (in vitro): 0.1 ×10⁻⁶ cm/s | Papp B→A at 40 min, 50 μM (in vitro): 0.4 ×10⁻⁶ cm/s

Structure (SMILES): CCCCc1ccc(C=O)n1Cc1ccc(-c2ccccc2-c2nnn[nH]2)cc1 [Compound 7, 5-n-Butyl-1-[2′-(1H-tetrazol-5-yl)biphenyl-4-yl-methyl]-2-pyrrolaldehyde]
melting point: 129 °C | pIC50 (AT1 receptor; [3]): 7.18

More lines, main results first:

pIC50 (AT1 receptor; [3]): 8.47 | Papp A→B at 60 min, 50 μM (in vitro): 0.2 ×10⁻⁶ cm/s | Papp B→A at 40 min, 50 μM (in vitro): 0.2 ×10⁻⁶ cm/s | Ratio (1/2) (TC7 cell monolayer): 1.0
Structure (SMILES): CCCCC(=O)N(Cc1ccc(-c2ccccc2-c2nnn[nH]2)cc1)[C@H](C(=O)O)C(C)C [Valsartan, valsartan, reference compound]
Max. effect at 15 mg/kg (% reduction vs. basal) [1]: 14.4 % reduction vs. basal | ED15 (0-120 min) [1]: 26.2 mg/kg | Max. effect at 15 mg/kg (% reduction vs. basal) [2]: 19.0 % reduction vs. basal | ED15 (0-120 min) [2]: 16.0 mg/kg

melting point: 160 °C | pIC50 (AT1 receptor; [3]): 5.92
Structure (SMILES): CCCc1cc(C(C)C)c(C)n1Cc1ccc(-c2ccccc2-c2nnn[nH]2)cc1 [Compound 15, 2-Methyl-5-n-propyl-3-isopropyl-1-[2′-(1H-tetrazol-5-yl)biphenyl-4-yl-methyl]pyrrole]

melting point: 148 °C | times more potent than the BPT-pyrrole derivative of EP-0323841 (AT1 receptor; 8.9 nM vs. 1.6 μM of compound 277 of EP 0 323 841): approx. 200 times | pIC50 (AT1 receptor; AT1 binding): 8.05 | times less potent than valsartan and eprosartan in vitro (AT1 receptor; respectively vs. valsartan and eprosartan): approx. ⅗ | Papp A→B at 60 min, 50 μM (in vitro): 27.9 ×10⁻⁶ cm/s | Papp B→A at 40 min, 50 μM (in vitro): 3.4 ×10⁻⁶ cm/s | Ratio (1/2) (TC7 cell monolayer): 8.2
Structure (SMILES): CCCCc1cc(CC(C)C)c(C=O)n1Cc1ccc(-c2ccccc2-c2nnn[nH]2)cc1 [Compound 1, 5-n-Butyl-1-[2′-(1H-tetrazol-5-yl)biphenyl-4-yl-methyl]-3-[3-(2-methyl)propyl]-2-pyrrolaldehyde]
Max. effect at 15 mg/kg (% reduction vs. basal) [1]: 16.0 % reduction vs. basal | ED15 (0-120 min) [1]: 17.4 mg/kg | Max. effect at 15 mg/kg (% reduction vs. basal) [2]: 22.1 % reduction vs. basal | ED15 (0-120 min) [2]: 12.6 mg/kg

melting point: 144 °C | pIC50 (AT1 receptor; [3]): 6.98
Structure (SMILES): CCCCCc1cc(C(C)C)c(C=O)n1Cc1ccc(-c2ccccc2-c2nnn[nH]2)cc1 [Compound 8, 5-n-Pentyl-3-isopropyl-1-[2′-(1H-tetrazol-5-yl)biphenyl-4-yl-methyl]-2-pyrrolaldehyde]

melting point: 174 °C | pIC50 (AT1 receptor; [3]): 7.82 | Papp A→B at 60 min, 50 μM (in vitro): 15.4 ×10⁻⁶ cm/s | Papp B→A at 40 min, 50 μM (in vitro): 1 ×10⁻⁶ cm/s | Ratio (1/2) (TC7 cell monolayer): 15.4
Structure (SMILES): CCCCc1cc(C(C)C)c(C=O)n1Cc1ccc(-c2ccccc2-c2nnn[nH]2)cc1 [Compound 6, 5-n-Butyl-3-isopropyl-1-[2′-(1H-tetrazol-5-yl)biphenyl-4-yl-methyl]-2-pyrrolaldehyde]
Max. effect at 15 mg/kg (% reduction vs. basal) [1]: 13.2 % reduction vs. basal | ED15 (0-120 min) [1]: 19.3 mg/kg | Max. effect at 15 mg/kg (% reduction vs. basal) [2]: 18.7 % reduction vs. basal | ED15 (0-120 min) [2]: 16.0 mg/kg

melting point: 170 °C | pIC50 (AT1 receptor; [3]): 6.97
Structure (SMILES): CCCc1cc(C(C)C)c(C(=O)O)n1Cc1ccc(-c2ccccc2-c2nnn[nH]2)cc1 [Compound 11, 5-n-Propyl-3-isopropyl-1-[2′-(1H-tetrazol-5-yl)biphenyl-4-yl-methyl]-2-pyrrolecarboxylic acid]

melting point: 142 °C | pIC50 (AT1 receptor; [3]): 6.57
Structure (SMILES): CCCCc1ccc(C(=O)O)n1Cc1ccc(-c2ccccc2-c2nnn[nH]2)cc1 [Compound 12, 5-n-Butyl-1-[2′-(1H-tetrazol-5-yl)biphenyl-4-yl-methyl]-2-pyrrolecarboxylic acid]

melting point: 180 °C | pIC50 (AT1 receptor; [3]): 7.45
Structure (SMILES): CCCc1cc(C(C)C)c(C=O)n1Cc1ccc(-c2ccccc2-c2nnn[nH]2)cc1 [Compound 5, 5-n-Propyl-3-isopropyl-1-[2′-(1H-tetrazol-5-yl)biphenyl-4-yl-methyl]-2-pyrrolaldehyde]

melting point: 134 °C | pIC50 (AT1 receptor; [3]): 6.32
Structure (SMILES): CCCc1ccc(C(=O)O)n1Cc1ccc(-c2ccccc2-c2nnn[nH]2)cc1 [Compound 10, 5-n-Propyl-1-[2′-(1H-tetrazol-5-yl)biphenyl-4-yl-methyl]-2-pyrrolecarboxylic acid]
